In the supplement of paper PMC10307832:

Tests used:
Test in all cases: relative viability (nuclei count vs DMSO), 5 days (fraction); higher = more cells survive
[1] = test system: LCLC-103H
How it was run: (§1)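 A single step with final 0.05% Triton X-100, 1% formaldehyde and 1 ug/ml Hoechst fixed the cells and stained nuclei 5 days after treatment. Lung cancer cell lines in 1536-well plates had been treated by pin tool the day after seeding with one drug alone or a fixed anchor-drug dose plus five library-drug doses (not always all listed) in √10 steps, and nuclei were counted on 4× images. Relative viability is the ratio of nuclei in treated wells to nuclei in vehicle wells, taken as the median of duplicate plates.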

[2] = test system: EBC-1
How it was run: as §1

[3] = test system: EKVX
How it was run: as §1

[4] = test system: NCI-H1703
How it was run: as §1

[5] = test system: A549
How it was run: as §1

[6] = test system: HCC-15
How it was run: as §1

[7] = test system: NCI-H1299
How it was run: as §1

[8] = test system: IA-LM
How it was run: as §1

[9] = test system: NCI-H1755
How it was run: as §1

[10] = test system: NCI-H1395
How it was run: as §1

[11] = test system: HCC-44
How it was run: as §1

[12] = test system: UMC-11
How it was run: as §1

[13] = test system: Calu-6
How it was run: as §1

**Q.** For `CC(=O)O[C@@]12CO[C@@H]1C[C@H](O)[C@@]1(C)C(=O)[C@H](O)C3=C(C)[C@@H](OC(=O)[C@H](O)[C@@H](NC(=O)OC(C)(C)C)c4ccccc4)C[C@@](O)([C@@H](OC(=O)c4ccccc4)[C@H]21)C3(C)C` [Docetaxel] + CS(=O)(=O)N1CCN(Cc2cc3nc(-c4cccc5[nH]ncc45)nc(N4CCOCC4)c3s2)CC1 [Pictilisib] (partner 1 µM), which relative viability ([1]; first compound 0.0002 µM) is on record?
**A.** 0.537

**Q.** And the relative viability ([1]; first compound 0.000632 µM)?
**A.** 0.514

**Q.** And the relative viability ([1]; first compound 0.002 µM)?
**A.** 0.612

**Q.** And the relative viability ([1]; first compound 0.006325 µM)?
**A.** 0.455

**Q.** And the relative viability ([1]; first compound 0.02 µM)?
**A.** 0.251

**Q.** What about the relative viability ([2]; first compound 0.0002 µM) of the same compound?
**A.** 0.347

**Q.** What about the relative viability ([2]; first compound 0.000632 µM) of the same compound?
**A.** 0.267

**Q.** And the relative viability ([2]; first compound 0.002 µM)?
**A.** 0.189

**Q.** And the relative viability ([2]; first compound 0.006325 µM)?
**A.** 0.164

**Q.** And the relative viability ([3]; first compound 0.0002 µM)?
**A.** 0.447

**Q.** What about the relative viability ([3]; first compound 0.000632 µM) of the same compound?
**A.** 0.45

**Q.** What about the relative viability ([3]; first compound 0.002 µM) of the same compound?
**A.** 0.26

**Q.** What about the relative viability ([3]; first compound 0.006325 µM) of the same compound?
**A.** 0.187

**Q.** What about the relative viability ([3]; first compound 0.02 µM) of the same compound?
**A.** 0.119

**Q.** And the relative viability ([4]; first compound 0.0002 µM)?
**A.** 0.235

**Q.** And the relative viability ([4]; first compound 0.000632 µM)?
**A.** 0.26

**Q.** What about the relative viability ([4]; first compound 0.002 µM) of the same compound?
**A.** 0.2

**Q.** What about the relative viability ([4]; first compound 0.006325 µM) of the same compound?
**A.** 0.161

**Q.** And the relative viability ([4]; first compound 0.02 µM)?
**A.** 0.136

**Q.** And the relative viability ([5]; first compound 0.0002 µM)?
**A.** 0.44

**Q.** What about the relative viability ([5]; first compound 0.000632 µM) of the same compound?
**A.** 0.22

**Q.** And the relative viability ([5]; first compound 0.002 µM)?
**A.** 0.0741

**Q.** What about the relative viability ([5]; first compound 0.006325 µM) of the same compound?
**A.** 0.0602

**Q.** What about the relative viability ([5]; first compound 0.02 µM) of the same compound?
**A.** 0.035

**Q.** And the relative viability ([6]; first compound 0.0002 µM)?
**A.** 0.679

**Q.** And the relative viability ([6]; first compound 0.000632 µM)?
**A.** 0.491

**Q.** And the relative viability ([6]; first compound 0.002 µM)?
**A.** 0.226

**Q.** And the relative viability ([7]; first compound 0.0002 µM)?
**A.** 0.761

**Q.** What about the relative viability ([7]; first compound 0.000632 µM) of the same compound?
**A.** 0.579

**Q.** And the relative viability ([7]; first compound 0.002 µM)?
**A.** 0.305

**Q.** And the relative viability ([7]; first compound 0.006325 µM)?
**A.** 0.14

**Q.** What about the relative viability ([7]; first compound 0.02 µM) of the same compound?
**A.** 0.109

**Q.** And the relative viability ([8]; first compound 0.0002 µM)?
**A.** 0.183

**Q.** What about the relative viability ([8]; first compound 0.000632 µM) of the same compound?
**A.** 0.11

**Q.** What about the relative viability ([8]; first compound 0.002 µM) of the same compound?
**A.** 0.0755

**Q.** And the relative viability ([8]; first compound 0.006325 µM)?
**A.** 0.0696

**Q.** What about the relative viability ([8]; first compound 0.02 µM) of the same compound?
**A.** 0.064

**Q.** And the relative viability ([9]; first compound 0.0002 µM)?
**A.** 0.346

**Q.** And the relative viability ([9]; first compound 0.000632 µM)?
**A.** 0.306

**Q.** What about the relative viability ([9]; first compound 0.002 µM) of the same compound?
**A.** 0.264

**Q.** What about the relative viability ([9]; first compound 0.006325 µM) of the same compound?
**A.** 0.249

**Q.** And the relative viability ([9]; first compound 0.02 µM)?
**A.** 0.183

**Q.** What about the relative viability ([10]; first compound 0.0002 µM) of the same compound?
**A.** 0.53

**Q.** What about the relative viability ([10]; first compound 0.000632 µM) of the same compound?
**A.** 0.617

**Q.** And the relative viability ([10]; first compound 0.002 µM)?
**A.** 0.543

**Q.** What about the relative viability ([10]; first compound 0.006325 µM) of the same compound?
**A.** 0.382

**Q.** What about the relative viability ([10]; first compound 0.02 µM) of the same compound?
**A.** 0.384

**Q.** What about the relative viability ([11]; first compound 0.0002 µM) of the same compound?
**A.** 0.406

**Q.** And the relative viability ([11]; first compound 0.000632 µM)?
**A.** 0.44

**Q.** And the relative viability ([11]; first compound 0.002 µM)?
**A.** 0.421

**Q.** What about the relative viability ([11]; first compound 0.006325 µM) of the same compound?
**A.** 0.144

**Q.** What about the relative viability ([11]; first compound 0.02 µM) of the same compound?
**A.** 0.0949

**Q.** What about the relative viability ([12]; first compound 0.0002 µM) of the same compound?
**A.** 0.799

**Q.** What about the relative viability ([12]; first compound 0.000632 µM) of the same compound?
**A.** 0.835

**Q.** What about the relative viability ([12]; first compound 0.002 µM) of the same compound?
**A.** 0.245

**Q.** What about the relative viability ([12]; first compound 0.006325 µM) of the same compound?
**A.** 0.226

**Q.** What about the relative viability ([12]; first compound 0.02 µM) of the same compound?
**A.** 0.136

**Q.** What about the relative viability ([13]; first compound 0.0002 µM) of the same compound?
**A.** 0.937

**Q.** What about the relative viability ([13]; first compound 0.000632 µM) of the same compound?
**A.** 0.754

**Q.** What about the relative viability ([13]; first compound 0.006325 µM) of the same compound?
**A.** 0.128

**Q.** And the relative viability ([13]; first compound 0.02 µM)?
**A.** 0.0823
